Measured values reported in patent US9505717B2, “Acetic acid ester compound or salt thereof” (Taiho Pharmaceutical Co., Ltd., priority 2012, dated 2016).

Test system: female SD rats
Assay: Test Example 1: urethral baseline pressure (intraurethral pressure) in rats after oral administration
Assay type: in vivo, rat
Conditions: 3 mg/kg oral, 11-week-old female SD rats, n=8, mean for 30 minutes after 8 hours from administration, Student's t-test vs distilled water group, FIG. 1
Procedure: The compounds of the present invention and comparative compounds were individually orally administered in an amount of 3 mg/kg to 11-week-old female SD rats (test substance-administration groups, n=8 for each group), and distilled water was orally administered as the control to 11-week-old female SD rats (solvent administration group, n=8). As the comparative compounds, 4-(1-methylpiperidyl) 2,2-diphenyl-2-propoxyacetate (Comparative Example 1), 4-(1-methylpiperidyl) 2,2-diphenyl-2-(propoxy-1,1,2,2,3,3,3-d7)acetate (Comparative Example 2), which is a deuterated compound of Comparative Example 1, and 4-piperidyl 2,2-diphenyl-2-propoxyacetate (Comparative Example 3), synthesized according to Patent Literatures 1 to 3, respectively, were used.
Seven and a half hours after administration, each rat was anesthetized by intraperitoneal administration of 1.2 g/kg of urethane. Thereafter, the ureters and the area between the urethra and the bladder were ligated, and a vesical fistula catheter and a catheter for measuring intraurethral pressure were inserted and indwelled in the bladder and the urethra. The catheter for measuring intraurethral pressure was inserted from the external urethral orifice. The other end of each catheter was connected to a corresponding pressure transducer branched into two directions via a corresponding three-way stopcock, and the remaining connecting portion of each three-way stopcock was connected to a corresponding syringe set in a continuous injection device. Intravesical pressure and intraurethral pressure were recorded via a polygraph connected with the pressure transducers. […] Physiological saline was injected into the urethra using the micro syringe pump connected to the urethra at 3 mL/hr, and the changes in intraurethral pressure associated with the rhythmic contraction were recorded.
The mean values of the urethral baseline pressure for the solvent administration group and the test substance-administration groups were calculated, and the results were indicated as mean±SE. […]

Row | SMILES | urethral baseline pressure (effect versus solvent administration group)
1 | CCCOC(C(=O)OC1CCN(C)CC1)(c1ccccc1)c1ccccc1 [Comparative Example 1, 4-(1-methylpiperidyl) 2,2-diphenyl-2-propoxyacetate] | did not have a significant effect on urethral baseline pressure
2 | [2H]C([2H])([2H])C([2H])([2H])C([2H])([2H])OC(C(=O)OC1CCN(C)CC1)(c1ccccc1)c1ccccc1 [Comparative Example 2, 4-(1-methylpiperidyl) 2,2-diphenyl-2-(propoxy-1,1,2,2,3,3,3-d7)acetate] | did not have a significant effect on urethral baseline pressure
3 | CCCOC(C(=O)OC1CCNCC1)(c1ccccc1)c1ccccc1 [Comparative Example 3, 4-piperidyl 2,2-diphenyl-2-propoxyacetate] | did not have a significant effect on urethral baseline pressure
